In ChEMBL document CHEMBL5365497, “Developing Novel Coumarin-Containing Azoles Antifungal Agents by the Scaffold Merging Strategy for Treating Azole-Resistant Candidiasis” (J Med Chem, 2023):
≈ marks a conversion by molar mass, not a printed value. Calls of active or inactive are those of the source. The rule behind the calls is not given here.

Key:
[1] = Cytotoxicity against mouse J774.A1 cells assessed as cell growth inhibition by MTT assay; format: toxicity, cell-based
[2] = molecular target: Cytochrome P450 2D6 (Homo sapiens, UniProt P10635); experiment: Inhibition of CYP2D6 in human liver microsomes using dextromethorphan as substrate preincubated for 5 mins followed by NADPH addition by LC-MS/MS analysis; format: ADME, Microsome
Cytochrome P450 2D6, sequence (P10635 whole entry): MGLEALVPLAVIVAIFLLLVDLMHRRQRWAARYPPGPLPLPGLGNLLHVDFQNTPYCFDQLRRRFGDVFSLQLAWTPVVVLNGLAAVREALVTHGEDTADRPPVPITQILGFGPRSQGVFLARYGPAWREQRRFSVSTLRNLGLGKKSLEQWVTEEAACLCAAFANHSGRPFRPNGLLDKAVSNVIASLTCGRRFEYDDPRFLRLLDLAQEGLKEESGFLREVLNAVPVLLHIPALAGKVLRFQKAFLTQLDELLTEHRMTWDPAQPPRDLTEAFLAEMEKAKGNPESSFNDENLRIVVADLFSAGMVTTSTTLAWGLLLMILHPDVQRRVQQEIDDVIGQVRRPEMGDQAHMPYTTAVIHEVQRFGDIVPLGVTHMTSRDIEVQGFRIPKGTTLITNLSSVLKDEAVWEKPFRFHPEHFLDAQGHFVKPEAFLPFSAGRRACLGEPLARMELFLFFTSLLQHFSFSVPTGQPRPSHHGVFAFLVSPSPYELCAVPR

[3] = test system: Candida albicans; experiment: Antifungal activity against Candida albicans CPCC400616 assessed as fungal growth inhibition by CLSI based microdilution method; format: functional
[4] = molecular target: Cytochrome P450 2C9 (Homo sapiens, UniProt P11712); experiment: Inhibition of CYP2C9 in human liver microsomes using diclofenac as substrate preincubated for 5 mins followed by NADPH addition by LC-MS/MS analysis; format: ADME, Microsome
Cytochrome P450 2C9, sequence (P11712 whole entry): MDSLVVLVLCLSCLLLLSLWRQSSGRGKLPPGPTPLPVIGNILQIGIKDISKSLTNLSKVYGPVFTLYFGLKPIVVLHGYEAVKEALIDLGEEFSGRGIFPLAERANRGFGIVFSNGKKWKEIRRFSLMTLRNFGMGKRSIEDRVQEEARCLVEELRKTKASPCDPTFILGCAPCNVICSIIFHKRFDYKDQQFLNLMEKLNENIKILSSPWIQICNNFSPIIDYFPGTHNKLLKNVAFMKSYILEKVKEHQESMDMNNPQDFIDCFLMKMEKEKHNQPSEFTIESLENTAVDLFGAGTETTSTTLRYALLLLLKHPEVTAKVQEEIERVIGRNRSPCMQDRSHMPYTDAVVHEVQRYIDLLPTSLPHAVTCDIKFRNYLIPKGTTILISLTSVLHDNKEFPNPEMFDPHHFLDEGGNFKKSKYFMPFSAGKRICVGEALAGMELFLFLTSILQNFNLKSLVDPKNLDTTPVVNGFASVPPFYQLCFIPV

[5] = test system: Cryptococcus neoformans; experiment: Antifungal activity against Cryptococcus neoformans assessed as fungal growth inhibition by CLSI based microdilution method; format: functional
[6] = test system: Candida tropicalis; experiment: Antifungal activity against Candida tropicalis assessed as fungal growth inhibition by CLSI based microdilution method; format: functional
[7] = Stability in mouse plasma assessed as half life at 1 uM measured for 180 mins by LC-MS/MS analysis; format: ADME, cell-free
[8] = test system: Candida parapsilosis; experiment: Antifungal activity against Candida parapsilosis assessed as fungal growth inhibition by CLSI based microdilution method; format: functional; details: Lodderomyces parapsilosis
[9] = test system: Pichia kudriavzevii; experiment: Antifungal activity against Pichia kudriavzevii assessed as fungal growth inhibition by CLSI based microdilution method; format: functional
[10] = Stability in mouse plasma assessed as compound remaining at 1 uM measured for 180 mins by LC-MS/MS analysis; format: ADME, cell-free; details: read-out: Stability
[11] = test system: Nakaseomyces glabratus; experiment: Antifungal activity against Candida glabrata assessed as fungal growth inhibition by CLSI based microdilution method; format: functional
[12] = test system: Candida albicans; experiment: Antifungal activity against Candida albicans SC5314 assessed as fungal growth inhibition by CLSI based microdilution method; format: functional
[13] = molecular target: T1, Cytochrome P450 1A2 (Homo sapiens, UniProt P05177); experiment: Inhibition of CYP1A2 in human liver microsomes using phenacetin as substrate preincubated for 5 mins followed by NADPH addition by LC-MS/MS analysis; format: ADME, Microsome
T1 sequence (P05177 whole entry): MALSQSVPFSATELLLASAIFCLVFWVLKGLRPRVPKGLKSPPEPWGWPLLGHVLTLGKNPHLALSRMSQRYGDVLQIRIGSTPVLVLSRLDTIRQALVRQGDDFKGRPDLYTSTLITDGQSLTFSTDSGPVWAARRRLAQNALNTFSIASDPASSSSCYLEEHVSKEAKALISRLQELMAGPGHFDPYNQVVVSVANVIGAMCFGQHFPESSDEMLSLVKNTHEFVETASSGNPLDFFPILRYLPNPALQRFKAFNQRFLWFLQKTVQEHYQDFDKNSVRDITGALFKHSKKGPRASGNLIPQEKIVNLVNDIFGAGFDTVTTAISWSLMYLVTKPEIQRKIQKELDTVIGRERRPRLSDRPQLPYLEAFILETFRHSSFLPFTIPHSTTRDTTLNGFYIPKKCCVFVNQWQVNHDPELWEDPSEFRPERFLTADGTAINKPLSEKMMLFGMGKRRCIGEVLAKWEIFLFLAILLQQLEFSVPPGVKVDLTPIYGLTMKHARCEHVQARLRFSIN

[14] = test system: Candida albicans; experiment: Antifungal activity against fluconazole-resistant Candida albicans 904 assessed as fungal growth inhibition measured for 48 hrs by CLSI based microdilution method; format: functional
[15] = test system: Candida albicans; experiment: Antifungal activity against fluconazole-resistant Candida albicans 17# assessed as fungal growth inhibition by CLSI based microdilution method; format: functional
[16] = test system: Candida albicans; experiment: Antifungal activity against fluconazole-resistant Candida albicans 632 assessed as fungal growth inhibition by CLSI based microdilution method; format: functional
[17] = test system: Candida albicans; experiment: Antifungal activity against Candida albicans SC5314 assessed as destruction of cell wall at 16 ug/ml incubated for 24 hrs by TEM analysis; format: functional, organism-based; details: dose 16.0 µg/ml
[18] = test system: Candida albicans; experiment: Antifungal activity against Candida albicans SC5314 assessed as destruction of cell membrane at 16 ug/ml incubated for 24 hrs by TEM analysis; format: functional, organism-based; details: dose 16.0 µg/ml
[19] = test system: Candida albicans; experiment: Antifungal activity against fluconazole-resistant Candida albicans 904 assessed as fungal growth inhibition by CLSI based microdilution method; format: functional
[20] = test system: Candida albicans; experiment: Antifungal activity against fluconazole-resistant Candida albicans 901 assessed as fungal growth inhibition by CLSI based microdilution method; format: functional
[21] = test system: Candida albicans; experiment: Antifungal activity against fluconazole-resistant Candida albicans CaR assessed as fungal growth inhibition by CLSI based microdilution method; format: functional
[22] = test system: Candida albicans; experiment: Antifungal activity against Candida albicans SC5314 assessed as fragmented nuclei at 16 ug/ml incubated for 24 hrs by TEM analysis; format: functional, organism-based; details: dose 16.0 µg/ml

## Clc1ccc(COC(Cn2ccnc2)c2ccc(Cl)cc2Cl)c(Cl)c1 (centres undefined) [MICONAZOLE]
[1]
  IC50: 22200 nM
[2]
  IC50: 875 nM
[3]
  MIC: 0.25 µg/mL (≈ 0.601 µM)
[4]
  IC50: 115 nM
[5]
  MIC: 0.25 µg/mL (≈ 0.601 µM)
[6]
  MIC: 1 µg/mL (≈ 2.4 µM)
[7]
  half-life at 1 µM: > 6 h
[8]
  MIC: 0.25 µg/mL (≈ 0.601 µM)
[9]
  MIC: 0.5 µg/mL (≈ 1.2 µM)
[10]
  remaining at 3 h, 1 µM: 94.9%
[11]
  MIC: 0.5 µg/mL (≈ 1.2 µM)
[12]
  MIC: 0.03 µg/mL (≈ 0.0721 µM)
[13]
  IC50: 2620 nM

## OC(Cn1cncn1)(Cn1cncn1)c1ccc(F)cc1F [FLUCONAZOLE]
[14]
  MFC: > 128 µg/mL
[15]
  MIC: > 128 µg/mL
[16]
  MIC: > 128 µg/mL
[17]
  Activity: inactive
[18]
  Activity: Active
[3]
  MIC: 4 µg/mL (≈ 13.1 µM)
[19]
  MIC: > 128 µg/mL
[5]
  MIC: 4 µg/mL (≈ 13.1 µM)
[6]
  MIC: 2 µg/mL (≈ 6.53 µM)
[8]
  MIC: 4 µg/mL (≈ 13.1 µM)
[9]
  MIC: 32 µg/mL (≈ 104 µM)
[11]
  MIC: 32 µg/mL (≈ 104 µM)
[12]
  MIC: 0.5 µg/mL (≈ 1.63 µM)
[20]
  MIC: > 128 µg/mL
[21]
  MIC: > 128 µg/mL
[22]
  Activity: Active
